What was measured:
Assay type in all cases: cell-based, dog
[1] = tested on: trypsin-like protease activity; test: Canine plate biofilm assay (PBA): trypsin-like protease activity (liquid BAPNA assay); settings: 48 hours, extracts at 500 μg/ml unless otherwise stated, vs no active control
Method: (§1) The assay requires fresh supragingival canine dental plaque and saliva for inoculation. The inoculum consists of pooled dental plaque and unfiltered saliva sampled from a group of 14 dogs, varying in age, breed and oral health status.
(§2) The plaque and saliva were resuspended in artificial saliva to form the inoculum of approximately 15% plaque and 30% saliva.
(§3) The plate biofilm assay (PBA) utilises a 24 well plate format in which biofilms, representative of canine dental plaque, are grown on hydroxyapatite (HA) discs. Prior to being introduced to the 24 well assay plate, each HA disc is preconditioned for 2 hours in a solution of 50% filter sterilised canine saliva in artificial canine saliva. The preconditioning step stimulates the formation of a salivary pellicle on the HA disc surface. […] Each HA disc, with the exception of those being used for biomass quantification, is placed into 500 μl PBS and vortex mixed for 30 seconds to remove biofilm growth from the disc into solution. […] Biofilm-covered HA discs that are being used for biomass quantification are removed from the 24 well assay plate and used directly in the crystal violet assay.
Trypsin-like protease activity was measured using the liquid BAPNA assay, a colourimetric assay in which the amount of trypsin present in a sample is directly proportional to the intensity of the colour developed. […]

[2] = tested on: anaerobes; test: Canine plate biofilm assay (PBA): bacterial viable counts, anaerobes; settings: 48 hours, extracts at 500 μg/ml unless otherwise stated, vs no active control
Method: as §1, §2
as §3, with “saliva.” for “saliva. The preconditioning step stimulates the formation of a salivary pellicle on the HA disc surface.”
(§4) Viable numbers of bacteria were quantified using Columbia blood agar plates supplemented with haemin and menadione. Aerobes were counted after incubation for 2 days and anaerobes, including black pigmenting colonies (BPC), were counted after incubation at appropriate conditions for 9 days. […]

[3] = tested on: biofilms representative of canine dental plaque; test: Canine plate biofilm assay (PBA): biomass quantification (crystal violet assay); settings: 48 hours, extracts at 500 μg/ml unless otherwise stated, OD595 vs no active control
Method: as §1, §2, §3
The total amount of biofilm grown on the HA discs was quantified using the crystal violet staining method. Biomass was represented as being directly proportional to the OD reading at 595 nm (0D595) of the samples compared to controls. […]

[4] = tested on: Aerobes; test: Canine plate biofilm assay (PBA): bacterial viable counts, aerobes; settings: 48 hours, extracts at 500 μg/ml unless otherwise stated, vs no active control
Method: as §1, §2
as §3, with “saliva.” for “saliva. The preconditioning step stimulates the formation of a salivary pellicle on the HA disc surface.”
as §4

[5] = tested on: black pigmenting colonies (BPC); test: Canine plate biofilm assay (PBA): bacterial viable counts, black pigmenting colonies; settings: 48 hours, extracts at 500 μg/ml unless otherwise stated, vs no active control
Method: as §1, §2
as §3, with “saliva.” for “saliva. The preconditioning step stimulates the formation of a salivary pellicle on the HA disc surface.”
as §4

For [H]/N=C(\N/C(=N/[H])NCCCCCCNC(=N)NC(=N)Nc1ccc(Cl)cc1)Nc1ccc(Cl)cc1 [Chlorhexidine, chlorhexidine], the “Protease (% reduction)” value [1] was 95.76%, the “Anaerobe (Log 10 reduction)” value [2] was 2.48 Log 10 and the “Biomass (% reduction)” value [3] was 94.40%. For the same compound, the “Aerobe (Log 10 reduction)” value [4] was 2.87 Log 10 and the “BPC (Log 10 reduction)” value [5] was 2.74 Log 10.
